# Data as given in ChEMBL document CHEMBL1201862, “PubChem BioAssay data set” (2004).
# Calls of active or inactive are those of the source.
# Assays:
# [1] = biological target: T1, Carboxy-terminal domain RNA polymerase II polypeptide A small phosphatase 1 (Homo sapiens, UniProt Q9GZU7); experiment: CTDSP1 inhibitors, concentration-response, biochemical, absorbance readout, ultra-high-throughput screen actives (AID 540297); type: functional
# T1 sequence (Q9GZU7 whole entry): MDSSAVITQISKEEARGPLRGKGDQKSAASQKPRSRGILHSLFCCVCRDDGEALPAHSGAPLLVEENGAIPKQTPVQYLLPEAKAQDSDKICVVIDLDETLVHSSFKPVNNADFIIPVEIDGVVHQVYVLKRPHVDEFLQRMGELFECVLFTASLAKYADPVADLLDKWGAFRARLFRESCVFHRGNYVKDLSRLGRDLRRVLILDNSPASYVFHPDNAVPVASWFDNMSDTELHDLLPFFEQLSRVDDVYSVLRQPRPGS
# [2] = OVCAR8 cell viability loss – plate reader, dry powder samples, PAX8 project, dose response (AID 743197); type: functional, cell-based; conditions: OVCAR-8
# Paired box protein Pax-8 = Paired box protein Pax-8 (Homo sapiens, UniProt Q06710); experiment: PAX8 transcriptional activity inhibition in RMG-I – RMG-I cells, luciferase, cherry-pick, dose response (AID 687027); type: functional, cell-based;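 note: luciferase reporter driven by Pax8 target thyroperoxidase promoter measured by SteadyGlo luminescence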
# [3] = biological target: T2, DNA repair protein RAD52 homolog (Homo sapiens, UniProt P43351); type: functional, biochemical
# T2 sequence (P43351 whole entry): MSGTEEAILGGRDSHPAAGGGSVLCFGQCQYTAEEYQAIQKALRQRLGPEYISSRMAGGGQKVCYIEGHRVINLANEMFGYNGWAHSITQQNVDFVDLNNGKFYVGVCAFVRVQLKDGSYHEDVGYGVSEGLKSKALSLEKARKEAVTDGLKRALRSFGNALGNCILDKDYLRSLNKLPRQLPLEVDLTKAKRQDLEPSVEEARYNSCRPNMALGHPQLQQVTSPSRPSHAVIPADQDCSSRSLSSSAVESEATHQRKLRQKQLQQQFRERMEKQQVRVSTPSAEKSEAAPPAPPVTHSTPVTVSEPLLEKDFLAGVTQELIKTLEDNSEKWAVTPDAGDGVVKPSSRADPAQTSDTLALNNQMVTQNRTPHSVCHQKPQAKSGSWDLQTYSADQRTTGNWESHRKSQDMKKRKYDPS
# [4] = biological target: T3, Short transient receptor potential channel 4 (Mus musculus, UniProt Q9QUQ5); experiment: calcium entry via TRPC4 opening agents – cell-based, HEK293 TRPC4/mu-opioid, Fluo-4 calcium, dose response (AID 434937); type: functional
# T3 sequence (Q9QUQ5 whole entry): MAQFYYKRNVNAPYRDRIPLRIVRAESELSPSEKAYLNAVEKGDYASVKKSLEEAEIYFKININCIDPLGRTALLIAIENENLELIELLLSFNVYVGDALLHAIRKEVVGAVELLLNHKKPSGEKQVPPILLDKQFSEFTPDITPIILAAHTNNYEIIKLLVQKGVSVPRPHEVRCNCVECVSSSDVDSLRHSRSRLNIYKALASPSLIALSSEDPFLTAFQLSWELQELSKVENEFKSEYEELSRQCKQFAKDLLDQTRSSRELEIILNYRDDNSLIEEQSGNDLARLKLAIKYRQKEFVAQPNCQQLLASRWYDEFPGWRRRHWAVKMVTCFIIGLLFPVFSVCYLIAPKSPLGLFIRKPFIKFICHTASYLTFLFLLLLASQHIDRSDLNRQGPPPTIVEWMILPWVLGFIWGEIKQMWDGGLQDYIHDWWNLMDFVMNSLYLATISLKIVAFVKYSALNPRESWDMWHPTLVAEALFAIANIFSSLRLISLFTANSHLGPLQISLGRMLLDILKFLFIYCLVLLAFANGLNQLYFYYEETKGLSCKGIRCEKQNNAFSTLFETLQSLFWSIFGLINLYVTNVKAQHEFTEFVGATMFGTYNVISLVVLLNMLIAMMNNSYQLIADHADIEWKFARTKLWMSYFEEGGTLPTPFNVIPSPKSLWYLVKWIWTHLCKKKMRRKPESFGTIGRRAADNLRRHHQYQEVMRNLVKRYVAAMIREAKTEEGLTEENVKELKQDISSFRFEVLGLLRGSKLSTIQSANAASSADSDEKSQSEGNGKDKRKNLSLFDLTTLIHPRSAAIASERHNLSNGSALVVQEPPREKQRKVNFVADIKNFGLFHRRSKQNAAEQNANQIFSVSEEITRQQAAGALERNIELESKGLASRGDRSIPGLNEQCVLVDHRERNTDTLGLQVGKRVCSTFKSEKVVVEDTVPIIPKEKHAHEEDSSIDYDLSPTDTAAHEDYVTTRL
# [5] = Luminescence Cell-Based Dose Response HTS to Identify Inhibitors of 5'UTR Stem-Loop Driven Prion Protein mRNA Translation in H4 Neuroglioblastoma Cells. [Related pubchem assays: 1827 (Project Summary), 1813 (Primary HTS)]; type: functional
# [6] = biological target: T4, Heat shock factor protein 1 (Mus musculus, UniProt P38532); experiment: enhancement of HSF1-driven luciferase signal – cell-based, NIH3T3, luminescence, dose retest, confirmation (AID 435004); type: functional;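 note: stress induced by proteasome inhibitor MG132 added 30 min after compound; luciferase reporter driven by HSF1 response element in NIH3T3 cells; actives raise luminescence as potentiators of the MG132 stress response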
# T4 sequence (P38532 whole entry): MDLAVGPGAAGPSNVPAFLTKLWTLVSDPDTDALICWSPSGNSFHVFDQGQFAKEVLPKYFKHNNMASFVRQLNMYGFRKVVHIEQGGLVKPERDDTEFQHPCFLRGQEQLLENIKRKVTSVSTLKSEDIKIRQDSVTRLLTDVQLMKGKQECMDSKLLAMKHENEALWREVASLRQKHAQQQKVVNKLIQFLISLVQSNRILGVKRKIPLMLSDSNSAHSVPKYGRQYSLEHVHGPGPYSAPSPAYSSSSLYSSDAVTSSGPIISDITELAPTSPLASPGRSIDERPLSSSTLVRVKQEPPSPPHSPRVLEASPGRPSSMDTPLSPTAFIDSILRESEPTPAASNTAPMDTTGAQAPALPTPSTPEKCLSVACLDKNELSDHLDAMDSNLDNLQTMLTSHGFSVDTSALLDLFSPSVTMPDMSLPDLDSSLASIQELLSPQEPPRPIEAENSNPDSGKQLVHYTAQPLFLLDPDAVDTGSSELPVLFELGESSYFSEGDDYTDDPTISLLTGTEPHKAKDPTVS
# [7] = luciferase reporter signal suppression in cells – H4 neuroglioma cells, luminescence, dose response (AID 1990); type: functional, cell-based
# [8] = alpha-synuclein stem-loop luciferase translation blockers – H4 neuroglioma cells, luminescence, confirmation (AID 1988); type: functional, cell-based
# [9] = THP-1 cell cytotoxicity, dose response, cytotoxicity control for non-replicating M. tuberculosis project (AID 489025); type: functional
# [10] = Vero E6 cell cytotoxicity, dose response, cytotoxicity control for non-replicating M. tuberculosis project, secondary assay (AID 492998); type: functional, VeroE6; conditions: Vero C1008
# cells = type: functional
# H9c2 = experiment: cells; type: functional, cell-based; conditions: Rattus norvegicus, H9c2, Myocardium;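 note: confirmatory concentration-response retest of ultra-high-throughput screening hits for modulation of myocardial damage; cell death induced by hydrogen peroxide oxidative stress; compound pretreatment for 60 min then peroxide exposure for 2 h; potency is for protecting the cells against peroxide damage rather than for killing them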
# [11] = biological target: T5, Calpain-2 catalytic subunit (Sus scrofa, UniProt P43367); experiment: m-calpain protease blockers, concentration series – biochemical, fluorogenic peptide substrate, dose response (AID 1420); type: functional
# T5 sequence (P43367 whole entry): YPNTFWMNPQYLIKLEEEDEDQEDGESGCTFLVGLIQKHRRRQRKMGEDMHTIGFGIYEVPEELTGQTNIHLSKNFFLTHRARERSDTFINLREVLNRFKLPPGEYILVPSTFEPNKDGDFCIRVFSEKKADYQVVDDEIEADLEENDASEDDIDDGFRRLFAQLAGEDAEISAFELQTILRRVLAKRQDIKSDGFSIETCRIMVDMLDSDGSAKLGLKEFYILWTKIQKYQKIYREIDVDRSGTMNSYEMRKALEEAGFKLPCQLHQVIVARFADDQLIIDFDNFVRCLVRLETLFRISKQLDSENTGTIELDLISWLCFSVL
# [12] = fluconazole-exposed Candida albicans growth modulators – fluorescence, retest, confirmation (AID 2467); type: functional, cell-based
# [13] = NIH-3T3 fibroblast cytotoxicity, dose response, cytotoxicity control, cell-based, fluorescence, Alamar Blue, secondary assay (AID 2327); type: functional;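 note: NIH-3T3 mouse fibroblasts cultured with fluconazole at 8 µg/mL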
# Streptococcus = experiment: GAS UMAA2166 growth inhibition – luminescence, BacTiterGlo, counter-screen for streptokinase expression inhibitor project, dose response (AID 1915); type: functional, organism-based;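 note: potency for reduction of bacterial viability or growth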
# [14] = test system: Streptococcus sp. 'group A'; experiment: Streptococcus pyogenes SK(-)GAS viability under kanamycin – luminescence, BacTiterGlo, confirmation, counter-screen for streptokinase expression inhibitor project, dose response (AID 1900); type: functional, organism-based
# Genome polyprotein = Genome polyprotein (dengue virus type 2, UniProt P29990); experiment: flavivirus cap methylation enzyme inhibition – biochemical, confirmation dose response, primary screen (AID 588689); type: functional
# [15] = biological target: T6, Ubiquitin-conjugating enzyme E2 N (Homo sapiens, UniProt P61088); type: functional;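 note: Dose-response confirmation in a TR-FRET assay detecting UBC13-driven polyubiquitin chain formation, inhibition measured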
# T6 sequence (P61088 whole entry): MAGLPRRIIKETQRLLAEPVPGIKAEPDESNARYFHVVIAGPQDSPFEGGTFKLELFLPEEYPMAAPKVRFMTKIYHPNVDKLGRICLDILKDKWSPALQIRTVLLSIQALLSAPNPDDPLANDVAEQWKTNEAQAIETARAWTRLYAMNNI
# [16] = NIH3T3 cell viability loss – ATP luminescence, mouse fibroblasts, counter-screen, dose response (AID 2010); type: functional, cell-based;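 note: cells exposed to compound for about 90 hours before reading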
# [17] = Trypanosoma cruzi growth suppression in host cells – NIH3T3 host cells, beta-gal luminescence, confirmation (AID 2044); type: functional, cell-based;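 note: intracellular parasites grown in NIH/3T3 mouse fibroblasts as host cells; luminescent beta-galactosidase reporter signal from transgenic T. cruzi replicating inside host cells; inhibitors lower the luminescence signal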
# Paired box protein Pax-8, sequence (Q06710 whole entry): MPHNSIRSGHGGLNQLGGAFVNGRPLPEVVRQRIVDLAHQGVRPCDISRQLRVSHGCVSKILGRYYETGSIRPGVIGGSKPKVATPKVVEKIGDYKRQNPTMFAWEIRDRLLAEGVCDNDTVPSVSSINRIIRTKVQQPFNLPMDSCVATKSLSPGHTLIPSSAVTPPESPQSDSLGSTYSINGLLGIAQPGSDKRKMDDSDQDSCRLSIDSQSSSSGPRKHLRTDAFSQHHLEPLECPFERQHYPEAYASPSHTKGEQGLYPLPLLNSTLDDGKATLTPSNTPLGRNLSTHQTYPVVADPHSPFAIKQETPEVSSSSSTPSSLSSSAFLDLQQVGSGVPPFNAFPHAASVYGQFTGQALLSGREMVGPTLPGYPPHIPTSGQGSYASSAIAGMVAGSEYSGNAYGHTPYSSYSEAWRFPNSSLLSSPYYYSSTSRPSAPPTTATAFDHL
# Genome polyprotein, sequence (P29990 2492-3391 limits assumed): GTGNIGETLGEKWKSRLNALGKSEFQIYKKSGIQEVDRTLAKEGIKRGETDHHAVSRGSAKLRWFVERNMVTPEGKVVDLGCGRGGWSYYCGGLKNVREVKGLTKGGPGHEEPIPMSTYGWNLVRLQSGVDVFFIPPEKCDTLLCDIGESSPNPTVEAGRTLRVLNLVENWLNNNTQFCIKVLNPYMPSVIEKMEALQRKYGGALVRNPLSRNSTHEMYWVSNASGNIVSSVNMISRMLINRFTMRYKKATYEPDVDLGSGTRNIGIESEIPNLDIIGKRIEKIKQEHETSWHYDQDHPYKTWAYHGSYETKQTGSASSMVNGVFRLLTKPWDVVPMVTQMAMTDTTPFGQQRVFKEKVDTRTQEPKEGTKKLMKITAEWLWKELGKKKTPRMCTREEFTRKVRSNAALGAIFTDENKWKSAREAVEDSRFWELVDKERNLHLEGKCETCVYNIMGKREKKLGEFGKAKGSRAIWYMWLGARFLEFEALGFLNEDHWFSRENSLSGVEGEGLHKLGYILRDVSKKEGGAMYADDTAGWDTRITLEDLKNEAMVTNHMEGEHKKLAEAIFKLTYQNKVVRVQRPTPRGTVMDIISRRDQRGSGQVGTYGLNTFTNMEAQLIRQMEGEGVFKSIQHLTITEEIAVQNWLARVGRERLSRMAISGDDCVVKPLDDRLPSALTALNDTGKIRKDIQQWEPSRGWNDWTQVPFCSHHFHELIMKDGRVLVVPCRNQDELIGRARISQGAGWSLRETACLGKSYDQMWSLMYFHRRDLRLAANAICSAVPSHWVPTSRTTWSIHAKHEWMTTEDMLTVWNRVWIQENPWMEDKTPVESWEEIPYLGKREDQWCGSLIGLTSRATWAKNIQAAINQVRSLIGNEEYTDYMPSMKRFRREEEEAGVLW
compound,measurement,setting,value
COc1cc(/C=C2/SC(=S)N(CCC(=O)Nc3ccc(C(=O)O)cc3)C2=O)cc(OC)c1OC,IC50,[1],6.91 µM (active)
Cc1ccc(S(=O)(=O)Nc2ccc3c(c2)C(=O)N([C@@H](C)CO)C[C@H](C)[C@H](CN(C)Cc2ccc(C(F)(F)F)cc2)OCCCC[C@@H](C)O3)cc1,AC50,[2],> 70 µM (inactive)
same,AC50,Paired box protein Pax-8,7.03 µM (active)
CC(=O)N(CCN(C)C)c1nc2cc3c(cc2s1)OCCO3,AC50,[3],11.4 µM (active)
CCCCCc1c(O)nc(SCCN(C)C)nc1O,EC50,[4],4220 nM (active)
COc1ccc(/C=N/NC(=O)C2COc3ccccc3O2)cc1OC (stereo not given),EC50,[4],841 nM (active)
CCCN1C(=O)c2ccccc2NC1c1ccc(Cl)c(Cl)c1 (stereo not given),EC50,[5],> 120 µM (not active)
same,EC50,[6],59.6 µM (active)
same,EC50,[7],16 µM (active)
same,EC50,[8],38.8 µM (active)
Cc1sc2nc(C)n(/N=C/c3ccc(O)cc3O)c(=O)c2c1C,EC50,[6],> 260 µM (inactive)
Cc1cc(N2CCN(c3ccccc3)CC2)nc(-n2nc(C)cc2C)n1,CC50,[9],> 40 µM (active)
same,CC50,[10],> 20 µM (active)
same,IC50,cells,940 nM (active)
COc1cc(Nc2nc3ccccc3n3nnnc23)cc(OC)c1OC,IC50,H9c2,> 79 µM (inactive)
NC(=O)c1cc2ccccc2o/c1=N\NC(=O)c1ccc(F)cc1,IC50,H9c2,> 79 µM (inactive)
CCCn1c(=O)c(C(=O)Nc2ccccc2)c(O)c2ccccc21,IC50,H9c2,9.48 µM (active)
COc1cc(Br)cc(CNc2ccc(F)c([N+](=O)[O-])c2)c1O,IC50,[11],2.79 µM (active)
CC1=C(/C=C/C(=O)O)C(C)(C)CCC1,EC50,[6],> 260 µM (inactive)
CC(=O)Nc1ccccc1/C=C/c1ccc2c(C)cc(C)c(O)c2n1,EC50,[12],> 38 µM (not active)
same,IC50,[11],10.9 µM (not active)
same,EC50,[13],31.3 µM (active)
CC1(C)CC2CC(C)(CN2C(=O)COC(=O)Cn2[nH]c(=O)c3ccccc3c2=O)C1 (stereo not given),IC50,H9c2,12.1 µM (active)
COc1cccc(NC(=O)CC2SC(Nc3ccccc3)=NC2=O)c1 (stereo not given),IC50,[11],> 50 µM (not active)
O=C(NCCCN1CCN(CCCNC(=O)c2ccc3c(c2)OCO3)CC1)c1ccc2c(c1)OCO2,EC50,[4],267 nM (active)
Cc1csc2ncnc(N3CCN(C(=O)Nc4ccc(OC(F)(F)F)cc4)CC3)c12,IC50,[11],6.79 µM (not active)
CCCOc1ccc(C(=O)NNC(=S)NC(=O)c2ccccc2)cc1,EC50,[5],14.5 µM (active)
same,EC50,[7],12.5 µM (active)
same,EC50,[4],3350 nM (active)
same,EC50,Streptococcus,762 nM (active)
same,EC50,[8],> 120 µM (not active)
same,EC50,[14],540 nM (active)
O=C(CN1C(=O)/C(=C2/SC(=S)N(CCS(=O)(=O)O)C2=O)c2ccccc21)Nc1cccc(Br)c1,IC50,Genome polyprotein,61.6 µM (active)
same,IC50,[1],3.22 µM (active)
CN(C(=O)COC(=O)c1cnc(Cl)c(Cl)c1)C1CCS(=O)(=O)C1 (stereo not given),IC50,[11],3.14 µM (not active)
CSc1ccc(CCNC(=O)CSc2ccsc2[N+](=O)[O-])cc1,IC50,[1],7.88 µM (active)
CC[C@H](C)Cc1cn([C@@H](CCCCN)C(=O)NCCCCCCCCCCC(=O)N2CCNCC2)nn1,AC50,[3],13.2 µM (active)
same,IC50,[15],> 20 µM (inactive)
COCCN1CCN(c2c3c(nc4cc(-c5cccc(F)c5)nn24)CCC3)CC1,IC50,H9c2,6.93 µM (active)
CCOC(=O)NC(C(F)(F)F)(C(F)(F)F)P(=O)(c1ccccc1)c1ccccc1,IC50,[11],> 50 µM (not active)
Clc1cccc(OCCN2CCNCC2)c1,EC50,[16],> 60 µM (not active)
same,EC50,[4],841 nM (active)
same,EC50,[17],744 nM (active)
Cc1ccc(-n2nc(-c3ccco3)cc2C(=O)O)cc1,IC50,[1],3.82 µM (active)
O=C(Nc1cccc(Cl)c1)N1CCC(CO)(CCOc2ccccc2)CC1,EC50,[6],45 µM (active)
CC1(C)OC(=O)C(=Cc2ccc(-c3ccc(Cl)c(C(=O)O)c3)o2)C(=O)O1,IC50,[1],4.62 µM (active)
Cc1ccc(S(=O)(=O)N2CCN(C(=O)c3cc(O)nc4ccccc34)CC2)c(C)c1,IC50,H9c2,> 79 µM (inactive)
COc1ccc(-c2cc3nc(NCCCN(C)C)n(C)c(=O)c3s2)c(C)c1,AC50,[3],29.3 µM (active)
O=C(Oc1ccc(/C=N/NC(=O)c2ccccc2O)cc1)c1ccccc1,IC50,[1],8.03 µM (active)
COc1ccc(CCN2C(=O)C3C(C2=O)C2C=CC3C23CC3)cc1OC (stereo not given),EC50,[6],> 260 µM (inactive)
